Assay results reported in ChEMBL document CHEMBL1147935, “Synthesis and antihypertensive activity of novel 3-benzyl-2-substituted-3H-[1,2,4]triazolo[5,1-b]quinazolin-9-ones” (2007).

How the values were obtained:
Type in all cases: functional
Parameters in all cases: scale not given: the % may be the effect or the level left
Rattus norvegicus [1] = assay: Antihypertensive activity in spontaneously hypertensive rat assessed as decrease in blood pressure at 5 mg/kg, po after 2 hrs by tail cuff method
Rattus norvegicus [2] = assay: Antihypertensive activity in spontaneously hypertensive rat assessed as decrease in blood pressure at 5 mg/kg, po after 5 hrs by tail cuff method
Rattus norvegicus [3] = assay: Antihypertensive activity in spontaneously hypertensive rat assessed as decrease in blood pressure at 5 mg/kg, po after 1 hr by tail cuff method
Rattus norvegicus [4] = assay: Antihypertensive activity in spontaneously hypertensive rat assessed as decrease in blood pressure at 5 mg/kg, po after 3 hrs by tail cuff method
Rattus norvegicus [5] = assay: Antihypertensive activity in spontaneously hypertensive rat assessed as decrease in blood pressure at 5 mg/kg, po after 4 hrs by tail cuff method

Structure (SMILES)	Activity (Rattus norvegicus [1]) [%]	Activity (Rattus norvegicus [2]) [%]	Activity (Rattus norvegicus [3]) [%]	Activity (Rattus norvegicus [4]) [%]	Activity (Rattus norvegicus [5]) [%]
Cc1nn2c(=O)c3ccccc3nc2n1Cc1ccccc1	31.5	15.3	15.3	33.5	38.8
O=c1c2ccccc2nc2n(Cc3ccccc3)c(CCl)nn12	11.9	6.7	3.7	15	17.2
O=c1c2ccccc2nc2n(Cc3ccccc3)c(CN3CCOCC3)nn12	10	19.4	8.6	21.7	25.6
O=c1c2ccccc2nc2n(Cc3ccccc3)c(-c3ccccc3)nn12	7.1	14.1	6.1	10.1	13.1
Cc1ccc(-c2nn3c(=O)c4ccccc4nc3n2Cc2ccccc2)cc1	5.6	16.2	4.7	9.1	11.6
CCOc1ccc(-c2nn3c(=O)c4ccccc4nc3n2Cc2ccccc2)cc1	7.6	16.5	6.5	9.52	13.6
O=c1c2ccccc2nc2n(Cc3ccccc3)cnn12	7.3	19.8	5.4	17.3	20.8
CCCc1nn2c(=O)c3ccccc3nc2n1Cc1ccccc1	20.5	15.7	13.4	19	17
COc1ccc(-c2nn3c(=O)c4ccccc4nc3n2Cc2ccccc2)cc1	9.7	15.4	5.9	9.6	12.6
O=c1c2ccccc2nc2n(Cc3ccccc3)c(CN3CCCCC3)nn12	5.1	13.1	3.6	9.1	16.1
COc1cc2nc(N3CCN(C(=O)c4ccco4)CC3)nc(N)c2cc1OC [PRAZOSIN]	24.6	12.9	30.2	18	19.6
